Active and inactive are the calls of the source.

For one data set, the system named is Nav1.8 (SCN10A). In words: Inhibition of Nav1.8 (unknown origin) at 10 uM under half […] state by whole-cell patch clamp analysis relative to control. The conditions noted are these: human.
The compound `O=S(=O)(NCC12CC3CC(CC(C3)C1)C2)c1cccc(S(=O)(=O)c2ccc(Cl)cc2)c1` displayed an inhibition at 10 µM of 63.8%.

As to `Cc1ccccc1C1CC(=O)C2=C(C1)NC(=O)C(CC(=O)Nc1cccc(Cl)c1C)C2` (stereo not given), the inhibition at 10 µM is 11.1%.

The test system of another data set is Mus musculus. In words: Analgesic activity in CFA-induced inflammatory pain mouse model assessed as effect on duration of pain relief by measuring delta AUC at 10 mM, ip by von frey test. Format: functional, organism-based.
Settings: not given
As to `O=S(=O)(NCC12CC3CC(CC(C3)C1)C2)c1cccc(S(=O)(=O)c2ccc(Cl)cc2)c1`, the result was Active.

Take `Cc1ccccc1C1CC(=O)C2=C(C1)NC(=O)C(CC(=O)Nc1cccc(Cl)c1C)C2` (stereo not given): the result was Active.

Another data set has as its system Mus musculus. Briefly: Analgesic activity in CFA-induced inflammatory pain mouse model assessed as inhibition of mechanical hyperalgesia by measuring delta AUC at 10 mM, ip by von frey test. In kind it is functional, organism-based.
Settings: not given
On to `O=S(=O)(NCC12CC3CC(CC(C3)C1)C2)c1cccc(S(=O)(=O)c2ccc(Cl)cc2)c1`, for which the result was Active.

`Cc1ccccc1C1CC(=O)C2=C(C1)NC(=O)C(CC(=O)Nc1cccc(Cl)c1C)C2` (stereo not given): the outcome was Active.

A further data set concerns Mus musculus. Briefly: Analgesic activity in CFA-induced inflammatory pain mouse model assessed as increase in mechanical pain threshold at 10 mM, ip measured upto 5 hrs by von frey test. Format: functional, organism-based.
Settings: not given
On to `O=S(=O)(NCC12CC3CC(CC(C3)C1)C2)c1cccc(S(=O)(=O)c2ccc(Cl)cc2)c1`, for which the outcome was Active.

On to `Cc1ccc(CS(=O)(=O)c2cn(CC(=O)Nc3ccc(F)cc3F)c3ccccc23)cc1`, for which the result was Active.

On to `Cc1ccccc1C1CC(=O)C2=C(C1)NC(=O)C(CC(=O)Nc1cccc(Cl)c1C)C2` (stereo not given), for which the result was Active.

With `Cc1cc(F)ccc1Oc1cc(C(F)(F)F)ccc1C(=O)Nc1cc[nH]c(=O)c1`, the outcome was Active.

For another data set, the system named is HEK293. In words: Binding affinity to Nav1.8 (unknown origin) expressed in HEK293 cells assessed as retention time by cell membrane chromatography analysis. In kind it is cell membranes. Conditions: Homo sapiens.
`O=S(=O)(NCC12CC3CC(CC(C3)C1)C2)c1cccc(S(=O)(=O)c2ccc(Cl)cc2)c1`: the Retention time stood at 56 min.

As for `Cc1ccc(CS(=O)(=O)c2cn(CC(=O)Nc3ccc(F)cc3F)c3ccccc23)cc1`, the Retention time came to 14.7 min.

Consider `COc1cccc(C2C3=C(CC4=C2C(=O)CC(C)(C)C4)CC(C)(C)CC3=O)c1OCC(=O)O`, for which the Retention time came to 1.2 min.

For the compound `COc1cc(NC(=O)c2ccc(-c3ccc(Cl)cc3)o2)cc(OC)c1`, the Retention time was found to be 120 min.

Regarding `Cc1ccccc1C1CC(=O)C2=C(C1)NC(=O)C(CC(=O)Nc1cccc(Cl)c1C)C2` (stereo not given), the Retention time was found to be 5.76 min.

As for `COc1ccc(/C=N/NC(=O)NC23CC4CC(C2)CC(c2ccc(C)cc2)(C4)C3)cc1`, the Retention time was determined as 0.4 min.

Take `Cc1cc(F)ccc1Oc1cc(C(F)(F)F)ccc1C(=O)Nc1cc[nH]c(=O)c1`: the Retention time is 8.56 min.

`Cc1ccc(C)c(Cn2cccc2CNC(=O)NC23CC4CC(CC(C4)C2)C3)c1`: the Retention time was 0.4 min.

On to `O=[N+]([O-])c1cccc(C2Oc3ccccc3C3CC(c4ccc(F)cc4)=NN32)c1` (stereo not given), for which the Retention time was 0.4 min.

For `O=C(Cc1ccccc1)N/N=C/c1c2ccccc2cc2ccccc12`, the Retention time was 0.4 min.

Take `CCC1(C)Oc2ccc(NS(=O)(=O)c3ccc4c(c3)Cc3ccccc3-4)cc2O1` (stereo not given): the Retention time amounted to 0.4 min.

As for `O=C(Cc1cccc2ccccc12)NN1C(=O)C2C3C=CC(C3)C2C1=O` (stereo not given), the Retention time was determined as 1.9 min.

Consider `CC1Oc2ccccc2CC1/C=C1/Oc2cc(OC(=O)c3ccc4c(c3)OCO4)ccc2C1=O` (stereo not given), for which the Retention time is 0.4 min.

For `CN1c2ccc(F)cc2C(C)(C)C12C=Cc1cc([N+](=O)[O-])ccc1S2` (stereo not given), the Retention time was 0.4 min.

For `Cc1cc(OCC(=O)Nc2ccc(C(C)(C)C)cc2)c2c3c(c(=O)oc2c1)CCC3`, the Retention time was found to be 0.4 min.

As to `Cc1cc2oc(=O)cc(C)c2c(O)c1C1=NNC(c2ccc3c(c2)OCO3)C1` (stereo not given), the Retention time turned out to be 0.4 min.

In the case of `O=S(=O)(NCC12CC3CC(CC(C3)C1)C2)c1ccc(Cl)c2ccccc12`, the Retention time amounted to 0.4 min.

The next data set concerns Mus musculus. Briefly: Analgesic activity in CFA-induced inflammatory pain mouse model assessed as effect on intensity of pain relief by measuring delta AUC at 10 mM, ip by von frey test. In kind it is functional, organism-based.
Settings: not given
With `O=S(=O)(NCC12CC3CC(CC(C3)C1)C2)c1cccc(S(=O)(=O)c2ccc(Cl)cc2)c1`, the outcome was Active.

Consider `Cc1ccccc1C1CC(=O)C2=C(C1)NC(=O)C(CC(=O)Nc1cccc(Cl)c1C)C2` (stereo not given), for which the outcome was Active.

The species named for the next data set is Homo sapiens. In words: Inhibition of Nav1.8 (unknown origin) at 10 uM under resting state by whole-cell patch clamp analysis relative to control.
Settings: not given
In turn, `O=S(=O)(NCC12CC3CC(CC(C3)C1)C2)c1cccc(S(=O)(=O)c2ccc(Cl)cc2)c1` registered an inhibition of 14.3%.

In turn, `COc1cc(NC(=O)c2ccc(-c3ccc(Cl)cc3)o2)cc(OC)c1` gave an inhibition of 62.1%.

`Cc1ccccc1C1CC(=O)C2=C(C1)NC(=O)C(CC(=O)Nc1cccc(Cl)c1C)C2` (stereo not given) returned an inhibition of 6.49%.

The next data set deals with Mus musculus. Briefly: Analgesic activity in CFA-induced inflammatory pain mouse model assessed as increase in mechanical pain threshold at 10 mM, ip measured within 5 hrs by von frey test. Format: functional, organism-based.
Settings: not given
As for `O=S(=O)(NCC12CC3CC(CC(C3)C1)C2)c1cccc(S(=O)(=O)c2ccc(Cl)cc2)c1`, the outcome was Active.

With `Cc1ccccc1C1CC(=O)C2=C(C1)NC(=O)C(CC(=O)Nc1cccc(Cl)c1C)C2` (stereo not given), the result was Active.

For the compound `Cc1cc(F)ccc1Oc1cc(C(F)(F)F)ccc1C(=O)Nc1cc[nH]c(=O)c1`, the outcome was inactive.
